{"source": "patent US20110301079A1", "about": "“NEUROMEDIN U RECEPTOR AGONISTS AND USES THEREOF” (Instituto di Ricerche di Biologia Molecolare P. Angeletti …, priority 2007, published 2011)", "key": {"[1]": {"tested_on": "male diet-induced obese mice", "assay": "Acute feeding study with NMU and NMS", "format": "in vivo", "protocol": "(§1) Ad libitum fed male diet-induced obese mice obtained from Taconic Farms were weighed and dosed either i.p. or s.c. with NMS or NMU at about 30 minutes prior to the onset of the dark phase of the light cycle and provided with a pre-weighed aliquot of high fat diet (D12492: 60% kcal from fat: Research Diets, Inc.), which was then weighed two and 18 hours after the onset of the initial dark phase. Mice were weighed at the 18 hour (overnight) time point."}, "[2]": {"tested_on": "wild-type, Nmur1 knockout, Nmur2 knockout and Nmur1/Nmur2 double knockout mice", "assay": "Acute feeding study in wild-type and Nmur knockout mice", "format": "in vivo", "protocol": "as §1\nNMUR1 knockout (Nmur1−/−) mice were generated using standard homologous recombination techniques. Nmur1 mice were subsequently transferred to Taconic Farms where they were either maintained on a 75% C57BL/6×25% 129S6/SvEv mixed genetic background or backcrossed 6 generations to C57BL/6. NMUR2 knockout (Nmur2−/−) mice were licensed from Deltagen Inc., San Mateo, Calif. and subsequently transferred to Taconic Farms were they were either maintained on a 75% C57BL/6×25% 129/OlaHsd mixed genetic background or backcrossed for 7 generations to C57BL/6. NMUR1 and NMUR2 double knockout (Nmur1&2−/−) mice were generated by crossing N6 Nmur1−/− mice to N7 Nmur2−/− mice. Mice were individually housed in Tecniplast cages in a conventional SPF facility. Mice were initially maintained on a regular chow diet and then early in their life were switched to a high fat diet (D12492) with ad libitum access to water in a 12-h light/12-h dark cycle.\nThe anorectic effects of NMS1 were mediated by both the NMUR1 and NMUR2 receptors. […] Effects on food intake (FIG. 9A) and body weight (FIG. 9B) are shown."}}}
{"substance": "H-ILQRGSGTAAVDFTKKDHTATWGRPFFLFRPRN-NH2 [NMS, reference compound]", "values": [{"measurement": "anorectic effects compared with NMU", "setting": "[1]; acute peripheral administration", "result": "appeared to be greater than the anorectic effects observed with NMU"}, {"measurement": "food intake", "setting": "[1]; acute peripheral administration (i.p. or s.c.), FIG. 1A", "result": "significantly reduced"}, {"measurement": "body weight", "setting": "[1]; acute peripheral administration, 18 hour (overnight), FIG. 1B", "result": "significantly reduced"}, {"measurement": "food intake", "setting": "[2]; Nmur1 knockout mice, highest dose tested", "result": "modest but significant effect"}, {"measurement": "food intake", "setting": "[2]; acute peripheral administration, Nmur1 knockout mice", "result": "not in Nmur1 knockout mice"}, {"measurement": "food intake", "setting": "[2]; acute peripheral administration, Nmur2 knockout mice", "result": "significantly reduced"}, {"measurement": "food intake", "setting": "[2]; acute peripheral administration, wild-type mice", "result": "significantly reduced"}]}
